Test results as given in ChEMBL document CHEMBL4715821, “Discovery of 4-ethoxy-7H-pyrrolo[2,3-d]pyrimidin-2-amines as potent, selective and orally bioavailable LRRK2 inhibitors” (Bioorg Med Chem Lett, 2018).

Key:
[1] = target: Dual specificity mitogen-activated protein kinase kinase 1 (Homo sapiens) (UniProt Q02750); assay: Inhibition of wild-type human full length MEK1 (M1 to V393 residues) expressed in mammalian expression system assessed as residual activity at 1 uM by Kinomescan method relative to control
[2] = target: Ribosomal protein S6 kinase alpha-1 (Homo sapiens) (UniProt Q15418); assay: Inhibition of wild-type human partial length N-terminal RSK1 kinase domain 1 (M1 to E388 residues) expressed in bacterial expression system assessed as residual activity at 1 uM by Kinomescan method relative to control
[3] = target: Serine/threonine-protein kinase tousled-like 2 (Homo sapiens) (UniProt Q86UE8); assay: Inhibition of wild-type human partial length TLK2 (E424 to N749 residues) expressed in bacterial expression system assessed as residual activity at 1 uM by Kinomescan method relative to control
[4] = target: Mitogen-activated protein kinase kinase kinase kinase 1 (Homo sapiens) (UniProt Q92918); assay: Inhibition of wild-type human full length HPK1 (M1 to R799 residues) expressed in bacterial expression system assessed as residual activity at 1 uM by Kinomescan method relative to control
[5] = target: Serine/threonine-protein kinase OSR1 (Homo sapiens) (UniProt O95747); assay: Inhibition of wild-type human full length OSR1 (M1 to S527 residues) expressed in mammalian expression system assessed as residual activity at 1 uM by Kinomescan method relative to control
[6] = target: Ephrin type-A receptor 7 (Homo sapiens) (UniProt Q15375); assay: Inhibition of wild-type human partial length EPHA7 (Y608 to S912 residues) expressed in bacterial expression system assessed as residual activity at 1 uM by Kinomescan method relative to control
[7] = target: Ephrin type-A receptor 4 (Homo sapiens) (UniProt P54764); assay: Inhibition of wild-type human partial length EPHA4 (T601 to R897 residues) expressed in bacterial expression system assessed as residual activity at 1 uM by Kinomescan method relative to control
[8] = target: Serine/threonine-protein kinase PLK1 (Homo sapiens) (UniProt P53350); assay: Inhibition of wild-type human partial length PLK1 (A33 to F325 residues) expressed in mammalian expression system assessed as residual activity at 1 uM by Kinomescan method relative to control
[9] = target: Serine/threonine-protein kinase Sgk1 (Homo sapiens) (UniProt O00141); assay: Inhibition of wild-type human partial length SGK1 (I60 to L431 residues) expressed in mammalian expression system assessed as residual activity at 1 uM by Kinomescan method relative to control
[10] = target: T1, Mitogen-activated protein kinase kinase kinase kinase 3 (Homo sapiens) (UniProt Q8IVH8); assay: Inhibition of wild-type human partial length MAP4K3 (M1 to D301 residues) expressed in bacterial expression system assessed as residual activity at 1 uM by Kinomescan method relative to control
T1 sequence (whole entry): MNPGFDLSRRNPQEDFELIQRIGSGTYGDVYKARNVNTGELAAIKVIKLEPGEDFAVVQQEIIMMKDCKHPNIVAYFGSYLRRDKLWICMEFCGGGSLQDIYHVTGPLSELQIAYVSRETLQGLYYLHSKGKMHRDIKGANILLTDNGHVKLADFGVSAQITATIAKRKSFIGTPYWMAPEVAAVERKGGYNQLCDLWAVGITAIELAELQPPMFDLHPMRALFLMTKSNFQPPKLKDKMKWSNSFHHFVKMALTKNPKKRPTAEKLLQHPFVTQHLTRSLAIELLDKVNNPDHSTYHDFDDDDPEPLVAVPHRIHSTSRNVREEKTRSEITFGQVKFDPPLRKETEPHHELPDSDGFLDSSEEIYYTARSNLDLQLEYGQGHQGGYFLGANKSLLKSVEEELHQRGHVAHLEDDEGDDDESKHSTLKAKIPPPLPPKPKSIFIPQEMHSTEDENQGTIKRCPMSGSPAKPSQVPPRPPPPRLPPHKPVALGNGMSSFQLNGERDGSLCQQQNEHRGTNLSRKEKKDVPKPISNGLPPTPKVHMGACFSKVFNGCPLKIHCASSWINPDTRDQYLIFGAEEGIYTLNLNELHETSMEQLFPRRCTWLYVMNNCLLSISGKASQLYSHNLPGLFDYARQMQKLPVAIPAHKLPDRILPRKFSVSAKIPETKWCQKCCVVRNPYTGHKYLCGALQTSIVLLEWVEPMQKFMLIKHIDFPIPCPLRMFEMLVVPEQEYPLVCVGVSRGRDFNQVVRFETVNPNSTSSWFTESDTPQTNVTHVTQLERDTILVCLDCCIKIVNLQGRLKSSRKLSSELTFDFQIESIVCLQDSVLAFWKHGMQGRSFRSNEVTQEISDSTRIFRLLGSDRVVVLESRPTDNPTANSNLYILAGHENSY

[11] = target: High affinity nerve growth factor receptor (Homo sapiens) (UniProt P04629); assay: Inhibition of wild-type human partial length TRKA (G475 to G790 residues) expressed in mammalian expression system assessed as residual activity at 1 uM by Kinomescan method relative to control
[12] = target: Discoidin domain-containing receptor 2 (Homo sapiens) (UniProt Q16832); assay: Inhibition of wild-type human partial length DDR2 (V555 to E855 residues) expressed in mammalian expression system assessed as residual activity at 1 uM by Kinomescan method relative to control
[13] = target: Serine/threonine-protein kinase PAK 3 (Homo sapiens) (UniProt O75914); assay: Inhibition of wild-type human full length PAK3 (M1 to R544 residues) expressed in bacterial expression system assessed as residual activity at 1 uM by Kinomescan method relative to control
[14] = target: Serine/threonine-protein kinase DCLK2 (Homo sapiens) (UniProt Q8N568); assay: Inhibition of wild-type human partial length DCAMKL2 (K273 to V664 residues) expressed in bacterial expression system assessed as residual activity at 1 uM by Kinomescan method relative to control
[15] = target: Ephrin type-A receptor 6 (Homo sapiens) (UniProt Q9UF33); assay: Inhibition of wild-type human partial length EPHA6 (Y700 to E1046 residues) expressed in bacterial expression system assessed as residual activity at 1 uM by Kinomescan method relative to control
[16] = target: Serine/threonine-protein kinase 24 (Homo sapiens) (UniProt Q9Y6E0); assay: Inhibition of wild-type human partial length MST3 (A30 to S311 residues) expressed in bacterial expression system assessed as residual activity at 1 uM by Kinomescan method relative to control
[17] = target: Aurora kinase B (Homo sapiens) (UniProt Q96GD4); assay: Inhibition of wild-type human partial length AURKB (D25 to A303 residues) expressed in mammalian expression system assessed as residual activity at 1 uM by Kinomescan method relative to control
[18] = target: Ribosomal protein S6 kinase beta-1 (Homo sapiens) (UniProt P23443); assay: Inhibition of wild-type human partial length RPS6KB1 (M1 to S421 residues) expressed in mammalian expression system assessed as residual activity at 1 uM by Kinomescan method relative to control

Ephrin type-A receptor 7 (Homo sapiens), sequence (Q15375 28-998 limits assumed): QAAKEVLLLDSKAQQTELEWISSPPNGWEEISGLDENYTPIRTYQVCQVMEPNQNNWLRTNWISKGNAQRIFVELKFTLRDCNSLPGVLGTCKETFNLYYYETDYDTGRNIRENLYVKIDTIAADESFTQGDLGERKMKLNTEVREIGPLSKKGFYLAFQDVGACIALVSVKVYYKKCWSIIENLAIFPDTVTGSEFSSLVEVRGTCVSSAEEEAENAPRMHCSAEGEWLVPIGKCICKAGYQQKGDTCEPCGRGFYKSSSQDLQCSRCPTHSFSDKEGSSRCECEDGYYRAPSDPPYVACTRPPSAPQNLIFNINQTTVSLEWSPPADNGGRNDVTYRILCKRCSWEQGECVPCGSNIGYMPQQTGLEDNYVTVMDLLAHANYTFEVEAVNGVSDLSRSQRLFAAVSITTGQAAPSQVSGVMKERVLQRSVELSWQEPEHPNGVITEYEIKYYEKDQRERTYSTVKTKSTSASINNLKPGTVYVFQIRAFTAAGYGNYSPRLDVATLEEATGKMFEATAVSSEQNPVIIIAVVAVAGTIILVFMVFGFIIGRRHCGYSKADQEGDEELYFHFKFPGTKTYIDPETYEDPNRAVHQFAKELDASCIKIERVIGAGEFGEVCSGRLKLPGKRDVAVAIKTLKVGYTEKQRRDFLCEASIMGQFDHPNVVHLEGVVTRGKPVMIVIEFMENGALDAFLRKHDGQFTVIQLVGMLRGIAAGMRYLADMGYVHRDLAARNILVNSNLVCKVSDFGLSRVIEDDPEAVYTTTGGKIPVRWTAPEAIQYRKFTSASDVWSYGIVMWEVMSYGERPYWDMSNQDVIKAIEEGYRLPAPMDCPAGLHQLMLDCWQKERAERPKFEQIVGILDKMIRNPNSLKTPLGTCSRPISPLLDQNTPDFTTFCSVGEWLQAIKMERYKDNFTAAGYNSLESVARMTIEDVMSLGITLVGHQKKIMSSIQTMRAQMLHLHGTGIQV
Mitogen-activated protein kinase kinase kinase kinase 1 (Homo sapiens), sequence (Q92918 whole entry, looked up, the tested form may be a part): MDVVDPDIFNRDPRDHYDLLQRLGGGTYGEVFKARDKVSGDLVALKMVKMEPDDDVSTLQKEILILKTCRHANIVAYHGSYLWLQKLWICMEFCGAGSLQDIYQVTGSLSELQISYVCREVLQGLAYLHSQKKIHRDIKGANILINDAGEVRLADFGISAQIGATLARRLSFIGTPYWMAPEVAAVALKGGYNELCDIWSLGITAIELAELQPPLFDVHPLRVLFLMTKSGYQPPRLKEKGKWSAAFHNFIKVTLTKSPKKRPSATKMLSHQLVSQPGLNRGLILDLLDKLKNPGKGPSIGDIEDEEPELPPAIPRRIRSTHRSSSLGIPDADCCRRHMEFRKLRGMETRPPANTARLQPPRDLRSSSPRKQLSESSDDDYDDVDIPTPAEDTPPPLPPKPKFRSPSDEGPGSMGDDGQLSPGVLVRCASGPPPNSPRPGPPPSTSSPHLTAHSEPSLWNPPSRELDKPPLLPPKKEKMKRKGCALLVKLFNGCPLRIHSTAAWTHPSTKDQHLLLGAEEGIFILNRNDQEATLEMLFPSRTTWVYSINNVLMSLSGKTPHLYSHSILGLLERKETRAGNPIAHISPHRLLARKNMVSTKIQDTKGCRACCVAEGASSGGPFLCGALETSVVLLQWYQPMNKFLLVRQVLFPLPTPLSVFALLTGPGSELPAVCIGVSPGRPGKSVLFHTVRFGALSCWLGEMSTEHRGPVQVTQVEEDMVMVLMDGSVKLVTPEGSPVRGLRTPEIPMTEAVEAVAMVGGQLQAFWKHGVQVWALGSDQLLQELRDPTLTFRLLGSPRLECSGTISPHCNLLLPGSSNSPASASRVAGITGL
Serine/threonine-protein kinase PLK1 (Homo sapiens), sequence (P53350 whole entry, the tested form may be a part): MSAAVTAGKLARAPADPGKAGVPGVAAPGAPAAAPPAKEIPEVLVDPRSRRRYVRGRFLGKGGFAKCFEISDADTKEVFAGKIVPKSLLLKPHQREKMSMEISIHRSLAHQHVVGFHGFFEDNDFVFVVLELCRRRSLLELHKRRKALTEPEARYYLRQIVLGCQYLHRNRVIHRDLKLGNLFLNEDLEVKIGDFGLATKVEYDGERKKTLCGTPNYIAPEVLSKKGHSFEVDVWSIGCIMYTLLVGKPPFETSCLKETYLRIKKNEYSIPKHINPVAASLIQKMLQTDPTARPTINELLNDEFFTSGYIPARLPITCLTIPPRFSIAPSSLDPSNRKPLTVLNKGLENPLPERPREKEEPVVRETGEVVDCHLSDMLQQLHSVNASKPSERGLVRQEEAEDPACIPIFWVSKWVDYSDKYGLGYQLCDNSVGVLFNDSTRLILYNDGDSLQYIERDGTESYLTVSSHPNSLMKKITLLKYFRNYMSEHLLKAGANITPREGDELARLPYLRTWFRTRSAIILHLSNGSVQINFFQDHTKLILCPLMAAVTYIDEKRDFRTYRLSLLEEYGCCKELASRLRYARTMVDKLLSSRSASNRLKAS
Ephrin type-A receptor 6 (Homo sapiens), sequence (Q9UF33 whole entry, the tested form may be a part): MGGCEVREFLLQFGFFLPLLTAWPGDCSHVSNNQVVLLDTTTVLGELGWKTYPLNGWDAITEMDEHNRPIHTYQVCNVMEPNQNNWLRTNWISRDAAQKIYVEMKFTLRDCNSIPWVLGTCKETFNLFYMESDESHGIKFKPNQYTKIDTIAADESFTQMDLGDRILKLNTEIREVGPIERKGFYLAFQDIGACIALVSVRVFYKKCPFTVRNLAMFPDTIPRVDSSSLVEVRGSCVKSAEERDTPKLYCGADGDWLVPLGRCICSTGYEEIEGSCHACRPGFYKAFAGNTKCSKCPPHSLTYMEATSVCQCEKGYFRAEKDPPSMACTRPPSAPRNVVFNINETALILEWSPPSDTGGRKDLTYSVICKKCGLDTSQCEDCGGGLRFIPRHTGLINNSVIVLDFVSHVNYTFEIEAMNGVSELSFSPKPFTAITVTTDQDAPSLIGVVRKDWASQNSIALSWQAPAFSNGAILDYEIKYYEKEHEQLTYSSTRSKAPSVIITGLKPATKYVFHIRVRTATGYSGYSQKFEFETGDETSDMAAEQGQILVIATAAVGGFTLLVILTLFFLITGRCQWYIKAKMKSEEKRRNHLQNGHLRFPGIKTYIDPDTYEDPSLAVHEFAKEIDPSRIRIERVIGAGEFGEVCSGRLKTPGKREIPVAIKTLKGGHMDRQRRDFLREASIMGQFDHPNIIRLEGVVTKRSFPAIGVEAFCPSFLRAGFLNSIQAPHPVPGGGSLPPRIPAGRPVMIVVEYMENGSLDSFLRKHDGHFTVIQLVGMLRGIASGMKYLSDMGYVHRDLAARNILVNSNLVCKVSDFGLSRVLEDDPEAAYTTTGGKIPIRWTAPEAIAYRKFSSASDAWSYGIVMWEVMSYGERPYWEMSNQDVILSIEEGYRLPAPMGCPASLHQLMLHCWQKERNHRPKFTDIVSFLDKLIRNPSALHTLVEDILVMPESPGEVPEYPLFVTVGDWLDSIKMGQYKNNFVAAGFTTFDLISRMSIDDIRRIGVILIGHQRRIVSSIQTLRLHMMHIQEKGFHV
High affinity nerve growth factor receptor (Homo sapiens), sequence (P04629 33-796 limits assumed): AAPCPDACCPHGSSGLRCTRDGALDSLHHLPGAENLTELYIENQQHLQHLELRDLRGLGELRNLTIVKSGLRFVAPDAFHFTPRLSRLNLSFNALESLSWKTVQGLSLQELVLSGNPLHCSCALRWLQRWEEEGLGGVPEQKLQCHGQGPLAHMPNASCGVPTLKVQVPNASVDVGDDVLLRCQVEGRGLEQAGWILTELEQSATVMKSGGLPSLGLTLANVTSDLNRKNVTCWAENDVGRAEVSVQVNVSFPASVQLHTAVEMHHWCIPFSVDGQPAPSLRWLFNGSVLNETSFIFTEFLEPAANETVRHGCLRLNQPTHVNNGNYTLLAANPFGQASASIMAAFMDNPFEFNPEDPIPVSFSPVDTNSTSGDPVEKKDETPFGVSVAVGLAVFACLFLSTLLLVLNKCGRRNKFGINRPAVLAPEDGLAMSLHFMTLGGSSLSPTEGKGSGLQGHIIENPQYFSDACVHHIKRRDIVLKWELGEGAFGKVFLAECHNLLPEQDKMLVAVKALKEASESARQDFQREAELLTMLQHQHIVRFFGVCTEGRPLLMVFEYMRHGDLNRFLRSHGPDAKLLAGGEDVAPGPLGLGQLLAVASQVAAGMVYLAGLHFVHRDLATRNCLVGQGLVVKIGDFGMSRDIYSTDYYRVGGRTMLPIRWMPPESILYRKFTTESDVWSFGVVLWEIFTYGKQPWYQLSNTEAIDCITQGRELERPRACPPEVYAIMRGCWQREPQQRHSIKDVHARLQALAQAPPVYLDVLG
Serine/threonine-protein kinase OSR1 (Homo sapiens), sequence (O95747 whole entry, looked up, the tested form may be a part): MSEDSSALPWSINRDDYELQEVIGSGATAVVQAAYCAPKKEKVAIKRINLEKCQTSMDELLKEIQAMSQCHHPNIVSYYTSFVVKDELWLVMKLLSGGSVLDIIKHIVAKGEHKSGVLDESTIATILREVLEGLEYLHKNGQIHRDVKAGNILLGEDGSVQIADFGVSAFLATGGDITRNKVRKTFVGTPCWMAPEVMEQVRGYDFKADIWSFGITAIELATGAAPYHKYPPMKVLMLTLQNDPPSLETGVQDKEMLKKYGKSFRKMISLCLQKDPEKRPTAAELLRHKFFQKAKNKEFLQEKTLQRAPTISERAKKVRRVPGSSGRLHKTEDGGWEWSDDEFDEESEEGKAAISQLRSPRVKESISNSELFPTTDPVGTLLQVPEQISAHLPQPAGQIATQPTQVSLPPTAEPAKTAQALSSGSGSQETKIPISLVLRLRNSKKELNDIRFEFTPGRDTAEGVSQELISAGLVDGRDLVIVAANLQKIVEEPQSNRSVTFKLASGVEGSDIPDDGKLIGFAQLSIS
Aurora kinase B (Homo sapiens), sequence (Q96GD4 whole entry, the tested form may be a part): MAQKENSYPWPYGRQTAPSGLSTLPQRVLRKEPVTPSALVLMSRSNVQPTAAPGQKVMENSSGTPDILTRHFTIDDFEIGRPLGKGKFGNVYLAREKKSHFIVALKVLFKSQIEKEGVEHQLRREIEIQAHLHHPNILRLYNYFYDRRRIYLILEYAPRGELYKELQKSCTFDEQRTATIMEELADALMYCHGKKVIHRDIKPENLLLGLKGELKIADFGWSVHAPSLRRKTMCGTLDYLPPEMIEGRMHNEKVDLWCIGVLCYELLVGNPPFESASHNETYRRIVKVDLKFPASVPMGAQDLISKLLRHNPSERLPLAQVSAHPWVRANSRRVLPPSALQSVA

CCOc1nc(Nc2ccc(C(=O)N3CCOCC3)cc2OC)nc2[nH]ccc12
Activity [1]: 100%
Activity [2]: 87.1%
Activity [3]: 92.5%
Activity [4]: 86.6%
Activity [5]: 101%
Activity [6]: 97.8%
Activity [7]: 107%
Activity [8]: 87.8%
Activity [9]: 96.6%
Activity [10]: 88.9%
Activity [11]: 105%
Activity [12]: 95.7%
Activity [13]: 96.4%
Activity [14]: 93.8%
Activity [15]: 100%
Activity [16]: 97.4%
Activity [17]: 90.7%
Activity [18]: 104%
